Among the data in the Kinase Knowledgebase extract (Sharma et al. 2016) are IC50 values, retold here.

pIC50: −log10 of the molar value.

In one assay the target is PIK3CB (Human) (UniProt P42338). Briefly: Enzyme Assay.
Assay [1] addresses PIK3CD (Human) (UniProt O00329). The experiment in a line: Enzyme Assay.
Assay [2] has the same target. The experiment in a line: Cell-Based Assay. Conditions: raji.
The target in another assay is PIK3CG (human) (UniProt P48736). Briefly: Enzyme Assay.
In a further assay the target is PIK3CA (human) (UniProt P42336). The experiment in a line: Enzyme Assay.

By pIC50 is commonly meant the negative decadic logarithm of the IC50, by convention in mol/L.

PIK3CA (human), sequence (P42336 whole entry, looked up): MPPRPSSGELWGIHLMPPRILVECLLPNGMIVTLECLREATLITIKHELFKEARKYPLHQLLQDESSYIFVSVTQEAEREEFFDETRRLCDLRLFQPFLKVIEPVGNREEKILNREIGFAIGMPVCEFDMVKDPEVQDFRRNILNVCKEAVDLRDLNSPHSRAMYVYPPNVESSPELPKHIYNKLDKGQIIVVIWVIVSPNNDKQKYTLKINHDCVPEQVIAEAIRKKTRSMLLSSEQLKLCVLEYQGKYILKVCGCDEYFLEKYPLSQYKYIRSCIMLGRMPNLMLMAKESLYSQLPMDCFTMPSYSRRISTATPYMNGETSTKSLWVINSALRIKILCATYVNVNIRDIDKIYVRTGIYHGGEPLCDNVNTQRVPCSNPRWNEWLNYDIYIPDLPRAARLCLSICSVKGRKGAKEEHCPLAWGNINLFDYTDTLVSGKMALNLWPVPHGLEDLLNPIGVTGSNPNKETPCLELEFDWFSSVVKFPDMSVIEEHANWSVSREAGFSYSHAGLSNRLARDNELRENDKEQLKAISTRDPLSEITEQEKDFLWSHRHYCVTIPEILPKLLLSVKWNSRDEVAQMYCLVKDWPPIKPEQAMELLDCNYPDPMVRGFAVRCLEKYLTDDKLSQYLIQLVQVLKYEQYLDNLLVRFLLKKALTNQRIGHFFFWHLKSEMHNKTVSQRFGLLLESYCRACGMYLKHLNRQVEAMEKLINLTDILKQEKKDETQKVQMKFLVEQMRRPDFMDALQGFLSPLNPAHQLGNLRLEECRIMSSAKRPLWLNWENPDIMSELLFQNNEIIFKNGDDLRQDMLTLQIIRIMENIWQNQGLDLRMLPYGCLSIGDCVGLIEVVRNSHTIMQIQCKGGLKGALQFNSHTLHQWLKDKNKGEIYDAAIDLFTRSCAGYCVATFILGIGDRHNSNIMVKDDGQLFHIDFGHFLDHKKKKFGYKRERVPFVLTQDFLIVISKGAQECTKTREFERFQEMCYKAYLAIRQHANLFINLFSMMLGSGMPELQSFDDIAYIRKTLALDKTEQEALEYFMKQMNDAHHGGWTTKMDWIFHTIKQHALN
PIK3CD (Human), sequence (O00329 whole entry, looked up): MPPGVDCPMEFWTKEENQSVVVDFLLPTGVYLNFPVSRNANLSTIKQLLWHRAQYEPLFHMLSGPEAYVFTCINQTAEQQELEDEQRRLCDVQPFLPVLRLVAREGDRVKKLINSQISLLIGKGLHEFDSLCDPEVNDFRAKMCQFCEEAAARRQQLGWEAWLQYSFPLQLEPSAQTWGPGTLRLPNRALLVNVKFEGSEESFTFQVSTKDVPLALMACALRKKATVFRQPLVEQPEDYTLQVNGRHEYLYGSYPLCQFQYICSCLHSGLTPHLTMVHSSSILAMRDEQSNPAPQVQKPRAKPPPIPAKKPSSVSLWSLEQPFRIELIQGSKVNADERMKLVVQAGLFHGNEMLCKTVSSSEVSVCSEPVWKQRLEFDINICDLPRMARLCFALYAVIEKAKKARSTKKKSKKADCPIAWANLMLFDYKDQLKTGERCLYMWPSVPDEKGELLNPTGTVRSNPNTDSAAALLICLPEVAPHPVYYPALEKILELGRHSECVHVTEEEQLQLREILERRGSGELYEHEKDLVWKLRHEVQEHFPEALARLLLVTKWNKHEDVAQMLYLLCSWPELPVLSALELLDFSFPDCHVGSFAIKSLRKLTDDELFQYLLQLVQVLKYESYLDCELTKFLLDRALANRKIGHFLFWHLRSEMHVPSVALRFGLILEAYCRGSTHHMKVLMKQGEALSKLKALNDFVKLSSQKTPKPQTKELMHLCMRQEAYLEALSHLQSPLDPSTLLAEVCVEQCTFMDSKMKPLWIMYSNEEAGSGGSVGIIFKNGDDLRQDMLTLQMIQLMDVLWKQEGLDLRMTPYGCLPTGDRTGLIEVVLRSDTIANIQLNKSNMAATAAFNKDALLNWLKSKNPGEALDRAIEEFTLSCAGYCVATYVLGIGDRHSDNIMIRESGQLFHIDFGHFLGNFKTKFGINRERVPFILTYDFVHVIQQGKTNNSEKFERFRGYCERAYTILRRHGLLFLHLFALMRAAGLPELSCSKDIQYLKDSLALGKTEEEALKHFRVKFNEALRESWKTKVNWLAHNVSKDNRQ
PIK3CB (Human), sequence (P42338 whole entry, looked up): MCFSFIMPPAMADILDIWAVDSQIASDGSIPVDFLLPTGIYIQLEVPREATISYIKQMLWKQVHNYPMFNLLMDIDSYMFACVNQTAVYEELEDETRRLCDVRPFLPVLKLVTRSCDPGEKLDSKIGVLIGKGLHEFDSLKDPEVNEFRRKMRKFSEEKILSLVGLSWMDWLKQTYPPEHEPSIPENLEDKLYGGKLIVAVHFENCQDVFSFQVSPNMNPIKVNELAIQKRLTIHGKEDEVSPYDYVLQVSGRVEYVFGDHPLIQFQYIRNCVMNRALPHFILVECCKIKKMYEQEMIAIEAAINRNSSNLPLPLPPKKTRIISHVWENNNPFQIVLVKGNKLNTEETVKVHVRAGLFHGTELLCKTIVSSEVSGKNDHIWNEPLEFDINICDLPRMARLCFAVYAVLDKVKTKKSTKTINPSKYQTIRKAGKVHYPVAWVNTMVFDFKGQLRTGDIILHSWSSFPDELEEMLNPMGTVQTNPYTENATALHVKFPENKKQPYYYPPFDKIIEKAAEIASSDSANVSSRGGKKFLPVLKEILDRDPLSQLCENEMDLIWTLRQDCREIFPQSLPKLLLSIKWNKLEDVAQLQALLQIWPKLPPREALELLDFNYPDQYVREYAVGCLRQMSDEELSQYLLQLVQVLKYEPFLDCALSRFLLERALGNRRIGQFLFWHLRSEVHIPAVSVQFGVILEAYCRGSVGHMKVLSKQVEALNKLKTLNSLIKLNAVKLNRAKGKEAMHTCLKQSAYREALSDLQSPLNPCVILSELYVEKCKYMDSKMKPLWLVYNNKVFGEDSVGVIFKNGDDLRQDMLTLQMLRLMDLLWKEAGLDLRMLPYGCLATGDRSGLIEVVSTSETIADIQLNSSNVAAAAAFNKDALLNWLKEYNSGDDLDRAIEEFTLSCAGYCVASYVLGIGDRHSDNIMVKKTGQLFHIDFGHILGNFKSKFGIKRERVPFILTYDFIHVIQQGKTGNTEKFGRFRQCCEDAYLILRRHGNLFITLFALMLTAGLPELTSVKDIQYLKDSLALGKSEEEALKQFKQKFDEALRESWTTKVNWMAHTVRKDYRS
PIK3CG (human), sequence (P48736 whole entry, looked up): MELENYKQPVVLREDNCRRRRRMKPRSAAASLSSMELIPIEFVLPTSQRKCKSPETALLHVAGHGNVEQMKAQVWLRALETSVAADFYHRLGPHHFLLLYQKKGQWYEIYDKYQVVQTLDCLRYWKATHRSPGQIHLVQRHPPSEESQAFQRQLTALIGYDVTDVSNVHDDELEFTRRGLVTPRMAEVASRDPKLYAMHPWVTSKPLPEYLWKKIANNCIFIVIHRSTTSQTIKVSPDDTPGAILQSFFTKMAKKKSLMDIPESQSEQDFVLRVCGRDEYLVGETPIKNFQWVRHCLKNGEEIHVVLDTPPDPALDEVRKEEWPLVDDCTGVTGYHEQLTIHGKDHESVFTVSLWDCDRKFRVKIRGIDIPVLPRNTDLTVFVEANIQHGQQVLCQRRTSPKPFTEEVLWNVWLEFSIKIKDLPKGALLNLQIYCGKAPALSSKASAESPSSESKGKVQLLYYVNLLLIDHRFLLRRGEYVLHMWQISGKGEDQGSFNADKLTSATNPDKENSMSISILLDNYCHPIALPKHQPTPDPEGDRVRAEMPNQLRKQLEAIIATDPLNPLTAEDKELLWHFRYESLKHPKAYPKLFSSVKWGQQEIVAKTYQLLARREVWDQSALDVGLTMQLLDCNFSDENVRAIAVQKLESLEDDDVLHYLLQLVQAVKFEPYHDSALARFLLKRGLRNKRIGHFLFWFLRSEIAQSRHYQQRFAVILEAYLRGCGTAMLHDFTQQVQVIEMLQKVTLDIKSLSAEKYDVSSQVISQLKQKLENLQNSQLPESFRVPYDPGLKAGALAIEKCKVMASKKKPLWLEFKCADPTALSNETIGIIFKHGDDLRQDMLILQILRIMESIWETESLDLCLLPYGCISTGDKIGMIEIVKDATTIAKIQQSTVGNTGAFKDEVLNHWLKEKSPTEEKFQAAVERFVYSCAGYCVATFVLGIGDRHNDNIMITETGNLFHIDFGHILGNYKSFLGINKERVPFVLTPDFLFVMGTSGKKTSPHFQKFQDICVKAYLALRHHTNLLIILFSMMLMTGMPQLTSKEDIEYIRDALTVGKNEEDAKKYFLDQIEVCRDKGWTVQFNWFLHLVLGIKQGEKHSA

For `CNCCn1c([C@H](C)NC(=O)c2c(N)nn3cccnc23)cc2cccc(Cl)c2c1=O`, the pIC50 at PIK3CB (Human) and on PIK3CD (Human) [1] was more than 7.00 throughout.
On to `C[C@H](NC(=O)c1c(N)nn2cccnc12)c1cc2cccc(Cl)c2c(=O)n1C`, for which the pIC50 at PIK3CD (Human) [2] was more than 7.00; against PIK3CB (Human), more than 7.00; at PIK3CG (human) it was 6.00 to 7.00; at PIK3CD (Human) [1], 6.00 to 7.00.
As for `COc1cncc(-c2cccc3cc([C@H](C)NC(=O)c4c(N)nn5cccnc45)n(-c4ccccc4)c(=O)c23)c1`, the pIC50 is more than 7.00 at PIK3CD (Human) [2], not above 5.00 against PIK3CB (Human), more than 7.00 at PIK3CG (human) and 6.00 to 7.00 against PIK3CD (Human) [1].
As to `C[C@H](NC(=O)c1c(N)nn2cccnc12)c1cc2cccc(Cl)c2c(=O)n1CC(=O)N(C)C`, the pIC50 on PIK3CA (human), against PIK3CG (human) and against PIK3CD (Human) [1] was not above 5.00 each time.
For `COc1cc(-c2cccc3cc([C@H](C)NC(=O)c4c(N)ncc5cccnc45)n(-c4ccccc4)c(=O)c23)ccn1`, the negative logarithm of the IC50 (pIC50) against PIK3CD (Human) [2] was more than 7.00; against PIK3CB (Human) it was not above 5.00; against PIK3CG (human) it was more than 7.00; on PIK3CD (Human) [1], 6.00 to 7.00.
Regarding `C[C@H](NC(=O)c1c(N)nn2cccnc12)c1cc2cccc(Cl)c2c(=O)n1CC(O)CO` (stereo partly drawn), the pIC50 on PIK3CD (Human) [2] was more than 7.00; against PIK3CB (Human) it was more than 7.00; against PIK3CG (human), 6.00 to 7.00; against PIK3CD (Human) [1], 6.00 to 7.00.
For the compound `C[C@H](NC(=O)c1c(N)nn2cccnc12)c1cc2cccc(Cl)c2c(=O)n1-c1cccc(F)c1`, the pIC50 on PIK3CD (Human) [2] was more than 7.00; on PIK3CB (Human), 6.00 to 7.00; against PIK3CG (human) it was more than 7.00; at PIK3CD (Human) [1], 6.00 to 7.00.
As for `C[C@H](NC(=O)c1c(N)nn2cccnc12)c1c(C#N)c2cccc(F)c2c(=O)n1-c1ccccc1`, the pIC50 against PIK3CD (Human) [2] was more than 7.00; on PIK3CB (Human) it was 6.00 to 7.00; on PIK3CG (human), 6.00 to 7.00; against PIK3CD (Human) [1], 6.00 to 7.00.
Consider `C[C@H](NC(=O)c1c(N)nn2cccnc12)c1cc2cccc(C#CCNC(=O)C3CC(=O)CC(=O)C3)c2c(=O)n1-c1ccccc1`, for which the pIC50 against PIK3CG (human) is more than 7.00; against PIK3CD (Human) [1], 6.00 to 7.00.
Regarding `C=CC(=O)NCC#Cc1cccc2cc([C@H](C)NC(=O)c3c(N)nn4cccnc34)n(-c3ccccc3)c(=O)c12`, the pIC50 on PIK3CD (Human) [2] was more than 7.00; at PIK3CG (human), more than 7.00; against PIK3CD (Human) [1], 6.00 to 7.00.
As to `C[C@H](NC(=O)c1c(N)ncc2cccnc12)c1cc2cccc(Cl)c2c(=O)n1-c1ccccc1`, the pIC50 on PIK3CD (Human) [2] was more than 7.00; against PIK3CB (Human), 6.00 to 7.00; against PIK3CG (human), 6.00 to 7.00; against PIK3CD (Human) [1] it was 6.00 to 7.00.
`COc1cc(-c2cccc3nc([C@H](C)NC(=O)c4c(N)nn5cccnc45)n(-c4ccccc4)c(=O)c23)ccn1`: the pIC50 against PIK3CD (Human) [2] was more than 7.00; against PIK3CA (human), 6.00 to 7.00; against PIK3CG (human) it was more than 7.00; against PIK3CD (Human) [1] it was 6.00 to 7.00.
Turning to `C[C@H](NC(=O)c1nc(-c2ccc(NS(C)(=O)=O)cc2)cnc1N)c1cc2cccc(Cl)c2c(=O)n1-c1ccccc1`, the pIC50 against PIK3CA (human), against PIK3CB (Human) and at PIK3CD (Human) [1] was not above 5.00 in each case.
Take `Nc1nn2cccnc2c1C(=O)N1CCC[C@H]1c1cc2cccc(Cl)c2c(=O)n1-c1ccccc1`: the pIC50 against PIK3CA (human) and against PIK3CD (Human) [1] was not above 5.00 each time.
For `C[C@H](NC(=O)c1c(N)nn2cccnc12)c1cc2scc(Cl)c2c(=O)n1-c1ccccc1`, the pIC50 at PIK3CD (Human) [2] was more than 7.00; against PIK3CB (Human), 6.00 to 7.00; against PIK3CG (human), more than 7.00; on PIK3CD (Human) [1], 6.00 to 7.00.
Turning to `C[C@H](NC(=O)c1nc(-c2ccc(S(C)(=O)=O)cc2)cnc1N)c1cc2cccc(Cl)c2c(=O)n1-c1ccccc1`, the pIC50 at PIK3CA (human), against PIK3CB (Human) and against PIK3CD (Human) [1] was not above 5.00 throughout.
With `C[C@H](NC(=O)c1c(N)nn2cccnc12)c1cc2cccc(Cl)c2c(=O)n1-c1ccccc1`, the pIC50 was more than 7.00 against PIK3CD (Human) [2], 6.00 to 7.00 against PIK3CB (Human) and 6.00 to 7.00 on PIK3CD (Human) [1].
Take `C[C@H](NC(=O)c1nc(-c2cccc(O)c2)cnc1N)c1cc2cccc(Cl)c2c(=O)n1-c1ccccc1`: the pIC50 against PIK3CD (Human) [2] was 6.00 to 7.00; against PIK3CA (human), not above 5.00; against PIK3CD (Human) [1], not above 5.00.
On to `C[C@H](NC(=O)c1c(N)nn2cccnc12)c1cc2cccc(O)c2c(=O)n1-c1ccccc1`, for which the figures for the pIC50 on PIK3CD (Human) [2], at PIK3CA (human) and against PIK3CD (Human) [1] were 6.00 to 7.00, not above 5.00 and not above 5.00, respectively.
Turning to `COC(=O)c1ncsc1-c1cccc2cc([C@H](C)NC(=O)c3c(N)nn4cccnc34)n(-c3ccccc3)c(=O)c12`, the pIC50 against PIK3CA (human), at PIK3CB (Human) and at PIK3CD (Human) [1] was not above 5.00 throughout.
With `C=CCn1c([C@H](C)NC(=O)c2c(N)nn3cccnc23)cc2cccc(Cl)c2c1=O`, the pIC50 at PIK3CD (Human) [2] was more than 7.00; on PIK3CB (Human), more than 7.00; against PIK3CG (human), 6.00 to 7.00; on PIK3CD (Human) [1] it was 6.00 to 7.00.
`Cc1cnc(C(=O)N[C@@H](C)c2cc3cccc(C(F)(F)F)c3c(=O)n2-c2ccccc2)c(N)n1`: the pIC50 on PIK3CA (human), against PIK3CB (Human) and at PIK3CD (Human) [1] was not above 5.00 in each case.
